According to patent US8247211B2, “Glycopeptide antibiotics” (American Cyanamid Company, priority 2001, dated 2012):

Experiments:
Experiment in all cases: In vitro antibacterial evaluation: minimum inhibitory concentration (MIC), broth dilution method
Type in all cases: cell-based
Details in all cases: 18 hours at 35° C.
[1] = tested on: Escherichia coli
In short: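 Broth dilution per NCCLS M7-A2 in Muller-Hinton II […], inoculum 5×10^5 CFU/mL, antibiotic tested over 64-0.06 μg/mL. MIC is taken as the lowest concentration that inhibits growth. Panel includes recent clinical isolates resistant to methicillin, penicillin and/or vancomycin.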

[2] = tested on: Staphylococcus sp.
In short: (§1)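 Inoculum: 5×10^5 CFU/mL. Range: 64-0.06 μg/mL. Medium: Muller-Hinton II […]; NCCLS M7-A2 broth dilution. Endpoint: lowest concentration inhibiting growth. Strains include methicillin-, penicillin- and/or vancomycin-resistant clinical isolates.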

[3] = tested on: Enterococcus sp.
In short: as §1

[4] = tested on: Streptococcus sp.
In short: as §1

α-O-[(Heptylamino)carbonyl]-cyclo(glycyl-β-methylphenylalanyl-O-(4-O-hexopyranosylhexopyranosyl)tyrosyl-3-(2-iminoimidazolidin-4-yl)seryl-3-(3-hexopyranosyl-2-iminoimidazolidin-4-yl)serylseryl] [Example 253]
2 µg/mL: MIC Escherichia coli (GC 4560) ([1]; Escherichia coli (GC 4560))
16 µg/mL: MIC Streptococcus pneumoniae (ATCC 6301) ([4]; Streptococcus pneumoniae (ATCC 6301)) | MIC Streptococcus pneumoniae (GC 4565) ([4]; Streptococcus pneumoniae (GC 4565)) | MIC Streptococcus pneumoniae (ATCC 6301) ([4]; broth dilution, strain ATCC 6301) | MIC Streptococcus pneumoniae (GC 4565) ([4]; broth dilution, strain GC 4565)
32 µg/mL: MIC Coagulase Negative Staphylococcus (GC 6257) ([2]; Coagulase Negative Staphylococcus (GC 6257)) | MIC Coagulase Negative Staphylococcus (GC 6257) ([2]; broth dilution, strain GC 6257) | MIC Enterococcus faecium (GC 4557) ([3]; Enterococcus faecium (GC 4557)) | MIC Enterococcus faecium (GC 4557) ([3]; broth dilution, strain GC 4557) | MIC Streptococcus agalactiae (GC 4564) ([4]; Streptococcus agalactiae (GC 4564)) | MIC Streptococcus pyogenes (GC 4563) ([4]; Streptococcus pyogenes (GC 4563)) | MIC Streptococcus pyogenes (GC 4563) ([4]; broth dilution, strain GC 4563) | MIC Streptococcus agalactiae (GC 4564) ([4]; broth dilution, strain GC 4564)
8 µg/mL: MIC Streptococcus pneumoniae (GC 1894) ([4]; Streptococcus pneumoniae (GC 1894)) | MIC Streptococcus pneumoniae (GC 1894) ([4]; broth dilution, strain GC 1894)
>64 µg/mL: MIC Escherichia coli (ATCC 25922) ([1]; Escherichia coli (ATCC 25922)) | MIC Escherichia coli (GC 4559) ([1]; Escherichia coli (GC 4559)) | MIC Coagulase Negative Staphylococcus (GC 4551) ([2]; Coagulase Negative Staphylococcus (GC 4551)) | MIC Staphylococcus aureus (ATCC 29213) ([2]; Staphylococcus aureus (ATCC 29213)) | MIC Staphylococcus aureus (GC 1131) ([2]; Staphylococcus aureus (GC 1131)) | MIC Staphylococcus aureus (GC 3051) ([2]; Staphylococcus aureus (GC 3051)) | MIC Staphylococcus aureus (GC 3053) ([2]; Staphylococcus aureus (GC 3053)) | MIC Staphylococcus aureus (GC 4542) ([2]; Staphylococcus aureus (GC 4542)) | MIC Staphylococcus aureus (GC 4544) ([2]; Staphylococcus aureus (GC 4544)) | MIC Staphylococcus aureus (ATCC 29213) ([2]; broth dilution, strain ATCC 29213) | MIC Staphylococcus aureus (GC 1131) ([2]; broth dilution, strain GC 1131) | MIC Staphylococcus aureus (GC 3051) ([2]; broth dilution, strain GC 3051) | MIC Staphylococcus aureus (GC 3053) ([2]; broth dilution, strain GC 3053) | MIC Staphylococcus aureus (GC 4542) ([2]; broth dilution, strain GC 4542) | MIC Staphylococcus aureus (GC 4544) ([2]; broth dilution, strain GC 4544) | MIC Coagulase Negative Staphylococcus (GC 4551) ([2]; broth dilution, strain GC 4551) | MIC Enterococcus faecalis (ATCC 29212) ([3]; Enterococcus faecalis (ATCC 29212)) | MIC Enterococcus faecalis (GC 2242) ([3]; Enterococcus faecalis (GC 2242)) | MIC Enterococcus faecalis (GC 2691) ([3]; Enterococcus faecalis (GC 2691)) | MIC Enterococcus faecalis (GC 3059) ([3]; Enterococcus faecalis (GC 3059)) | MIC Enterococcus faecalis (GC 4552) ([3]; Enterococcus faecalis (GC 4552)) | MIC Enterococcus faecalis (GC 4553) ([3]; Enterococcus faecalis (GC 4553)) | MIC Enterococcus faecalis (GC 4554) ([3]; Enterococcus faecalis (GC 4554)) | MIC Enterococcus faecalis (GC 6189) ([3]; Enterococcus faecalis (GC 6189)) | MIC Enterococcus faecium (GC 2243) ([3]; Enterococcus faecium (GC 2243)) | MIC Enterococcus faecium (GC 4556) ([3]; Enterococcus faecium (GC 4556)) | MIC Enterococcus faecalis (ATCC 29212) ([3]; broth dilution, strain ATCC 29212) | MIC Enterococcus faecalis (GC 2242) ([3]; broth dilution, strain GC 2242) | MIC Enterococcus faecium (GC 2243) ([3]; broth dilution, strain GC 2243) | MIC Enterococcus faecalis (GC 2691) ([3]; broth dilution, strain GC 2691) | MIC Enterococcus faecalis (GC 3059) ([3]; broth dilution, strain GC 3059) | MIC Enterococcus faecalis (GC 4552) ([3]; broth dilution, strain GC 4552) | MIC Enterococcus faecalis (GC 4553) ([3]; broth dilution, strain GC 4553) | MIC Enterococcus faecalis (GC 4554) ([3]; broth dilution, strain GC 4554) | MIC Enterococcus faecium (GC 4556) ([3]; broth dilution, strain GC 4556) | MIC Enterococcus faecalis (GC 6189) ([3]; broth dilution, strain GC 6189)
64 µg/mL: MIC Coagulase Negative Staphylococcus (GC 4547) ([2]; Coagulase Negative Staphylococcus (GC 4547)) | MIC Coagulase Negative Staphylococcus (GC 4548) ([2]; Coagulase Negative Staphylococcus (GC 4548)) | MIC Coagulase Negative Staphylococcus (GC 4549) ([2]; Coagulase Negative Staphylococcus (GC 4549)) | MIC Staphylococcus aureus (GC 4541) ([2]; Staphylococcus aureus (GC 4541)) | MIC Staphylococcus aureus (GC 4545) ([2]; Staphylococcus aureus (GC 4545)) | MIC Staphylococcus aureus-SMITH (GC 4543) ([2]; Staphylococcus aureus-SMITH (GC 4543)) | MIC Staphylococcus haemolyticus (GC 4546) ([2]; Staphylococcus haemolyticus (GC 4546)) | MIC Staphylococcus aureus (GC 4541) ([2]; broth dilution, strain GC 4541) | MIC Staphylococcus aureus-SMITH (GC 4543) ([2]; broth dilution, strain GC 4543) | MIC Staphylococcus aureus (GC 4545) ([2]; broth dilution, strain GC 4545) | MIC Staphylococcus haemolyticus (GC 4546) ([2]; broth dilution, strain GC 4546) | MIC Coagulase Negative Staphylococcus (GC 4547) ([2]; broth dilution, strain GC 4547) | MIC Coagulase Negative Staphylococcus (GC 4548) ([2]; broth dilution, strain GC 4548) | MIC Coagulase Negative Staphylococcus (GC 4549) ([2]; broth dilution, strain GC 4549) | MIC Enterococcus avium (GC 4558) ([3]; Enterococcus avium (GC 4558)) | MIC Enterococcus avium (GC 4558) ([3]; broth dilution, strain GC 4558)
